| melting point | SMILES |
| --- | --- |
| 149 to 151 °C | O=C(Nc1nccs1)C(CC1CCCC1)c1ccc(C#Cc2cncnc2)cc1 (stereo not drawn) [Example 10, 3-Cyclopentyl-2-(4-pyrimidin-5-ylethynyl-phenyl)-N-thiazol-2-yl-propionamide] |
| 164 to 167 °C | CN(C)CC#Cc1ccc(C(CC2CCCC2)C(=O)Nc2nccs2)cc1 (stereo not drawn) [Example 7] |
| 170 to 172 °C | COCC#Cc1ccc(C(CC2CCCC2)C(=O)Nc2nccs2)cc1 (stereo not drawn) [Example 3, 3-Cyclopentyl-2-[4-(3-methoxy-prop-1-ynyl)-phenyl]-N-thiazol-2-yl-propionamide] |
| 172 to 173 °C | O=C(Nc1nccs1)C(CC1CCCC1)c1ccc(C#CC2(O)CCCCC2)cc1 (stereo not drawn) [Example 2, 3-Cyclopentyl-2-[4-(1-hydroxy-cyclohexylethynyl)-phenyl]-N-thiazol-2-yl-propionamide] |
| 185 to 187 °C | O=C(Nc1nccs1)C(CC1CCCC1)c1ccc(C#Cc2ccccn2)cc1 (stereo not drawn) [Example 9, 3-Cyclopentyl-2-(4-pyridin-2-ylethynyl-phenyl)-N-thiazol-2-yl-propionamide] |

Further lines, the molecule ahead of its results:

| SMILES | melting point |
| --- | --- |
| C#Cc1ccc(C(CC2CCCC2)C(=O)Nc2nccs2)cc1 (stereo not drawn) [Example 1, 3-Cyclopentyl-2-(4-ethynyl-phenyl)-N-thiazol-2-yl-propionamide] | 181 to 183 °C |
| CC(O)CC#Cc1ccc(C(CC2CCCC2)C(=O)Nc2nccs2)cc1 (stereo not drawn) [Example 5, 3-Cyclopentyl-2-[4-(4-hydroxy-pent-1-ynyl)-phenyl]-N-thiazol-2-yl-propionamide] | 162 to 163 °C |
| O=C(Nc1nccs1)C(CC1CCCC1)c1ccc(C#CCO)cc1 (stereo not drawn) [Example 6, 3-Cyclopentyl-2-[4-(3-hydroxy-prop-1-ynyl)-phenyl]-N-thiazol-2-yl-propionamide] | 220 to 222 °C |
| CCC(C)(O)C#Cc1ccc(C(CC2CCCC2)C(=O)Nc2nccs2)cc1 (stereo not drawn) [Example 4, 3-Cyclopentyl-2-[4-(3-hydroxy-3-methyl-pent-1-ynyl)-phenyl]-N-thiazol-2-yl-propionamide] | 172 to 174 °C |

From patent US6388071B2, “Alkynyl phenyl heteroaromatic glucokinase activators” (Hoffmann-La Roche Inc., priority 2000, dated 2002)
